Reference: patent US6727232B2, “Nucleoside peptide antibiotics of AA-896” (Wyeth Holdings Corporation, priority 2001, dated 2004)
≈ marks a conversion by molar mass, not a printed value.

Experiments:
Assay in all cases: Broth dilution MIC
Format in all cases: cell-based
[1] = tested on: E. coli GC 4559; details: Escherichia coli, GC4559; E. coli GC 4559; Mueller-Hinton broth, 18 hours at 35° C.; read-out: Antimicrobial Activity (MIC)
Summary of the method: (§1)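 Broth dilution in Mueller-Hinton medium with 18 h incubation at 35° C.; the minimal concentration that stops growth of each strain is the MIC.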

[2] = tested on: P. aeruginosa GC 4532; details: Pseudomonas aeruginosa, GC4532; P. aeruginosa GC 4532; Mueller-Hinton broth, 18 hours at 35° C.; read-out: Antimicrobial Activity (MIC)
Summary of the method: as §1

[3] = tested on: CNS GC 4547; details: CNS GC 4547; Mueller-Hinton broth, 18 hours at 35° C.; read-out: Antimicrobial Activity (MIC)
Summary of the method: as §1

[4] = tested on: K. pneumoniae GC 4534; details: Klebsiella pneumoniae, GC4534; K. pneumoniae GC 4534; Mueller-Hinton broth, 18 hours at 35° C.; read-out: Antimicrobial Activity (MIC)
Summary of the method: as §1

[5] = tested on: E. faecalis GC 2242; details: Enterococcus faecalis, GC2242; E. faecalis GC 2242; Mueller-Hinton broth, 18 hours at 35° C.; read-out: Antimicrobial Activity (MIC)
Summary of the method: as §1

[6] = tested on: E. coli GC 2203; details: Escherichia coli, GC2203; E. coli GC 2203; Mueller-Hinton broth, 18 hours at 35° C.; read-out: Antimicrobial Activity (MIC)
Summary of the method: as §1

[7] = tested on: P. rettgeri GC 4530; details: Providencia rettgeri, GC4530; P. rettgeri GC 4530; Mueller-Hinton broth, 18 hours at 35° C.; read-out: Antimicrobial Activity (MIC)
Summary of the method: as §1

[8] = tested on: E. faecalis GC 4555; details: Enterococcus faecalis, GC4555; E. faecalis GC 4555; Mueller-Hinton broth, 18 hours at 35° C.; read-out: Antimicrobial Activity (MIC)
Summary of the method: as §1

[9] = tested on: CNS GC 4538; details: CNS GC 4538; Mueller-Hinton broth, 18 hours at 35° C.; read-out: Antimicrobial Activity (MIC)
Summary of the method: as §1

[10] = tested on: E. cloacae GC 3783; details: Enterobacter cloacae, GC3783; E. cloacae GC 3783; Mueller-Hinton broth, 18 hours at 35° C.; read-out: Antimicrobial Activity (MIC)
Summary of the method: as §1

[11] = tested on: S. aureus GC 1131; details: Staphylococcus aureus, GC1131; S. aureus GC 1131; Mueller-Hinton broth, 18 hours at 35° C.; read-out: Antimicrobial Activity (MIC)
Summary of the method: as §1

[12] = tested on: S. marcescens GC 4077; details: Serratia marcescens, GC4077; S. marcescens GC 4077; Mueller-Hinton broth, 18 hours at 35° C.; read-out: Antimicrobial Activity (MIC)
Summary of the method: as §1

[13] = tested on: E. coli GC 4560; details: Escherichia coli, GC4560, 18 h, read-out: Antimicrobial Activity (MIC)
Summary of the method: as §1

[14] = tested on: S. aureus GC 4536; details: Staphylococcus aureus, GC4536; S. aureus GC 4536; Mueller-Hinton broth, 18 hours at 35° C.; read-out: Antimicrobial Activity (MIC)
Summary of the method: as §1

[15] = tested on: CNS GC 4537; details: CNS GC 4537; Mueller-Hinton broth, 18 hours at 35° C.; read-out: Antimicrobial Activity (MIC)
Summary of the method: as §1

[16] = tested on: P. aeruginosa GC 2214; details: Pseudomonas aeruginosa, GC2214; P. aeruginosa GC 2214; Mueller-Hinton broth, 18 hours at 35° C.; read-out: Antimicrobial Activity (MIC)
Summary of the method: as §1

[17] = tested on: E. faecalis GC 842; details: Enterococcus faecalis, GC842; E. faecalis GC 842; Mueller-Hinton broth, 18 hours at 35° C.; read-out: Antimicrobial Activity (MIC)
Summary of the method: as §1

[18] = tested on: S. aureus GC 2216; details: Staphylococcus aureus, GC2216; S. aureus GC 2216; Mueller-Hinton broth, 18 hours at 35° C.; read-out: Antimicrobial Activity (MIC)
Summary of the method: as §1

[19] = tested on: M. morganii GC 4531; details: Morganella morganii, GC4531; M. morganii GC 4531; Mueller-Hinton broth, 18 hours at 35° C.; read-out: Antimicrobial Activity (MIC)
Summary of the method: as §1

[20] = tested on: E. coli GC 3226; details: Escherichia coli, GC3226; E. coli GC 3226; Mueller-Hinton broth, 18 hours at 35° C.; read-out: Antimicrobial Activity (MIC)
Summary of the method: as §1

| Structure (SMILES) | MIC [1] [µg/mL] | MIC [2] [µg/mL] | MIC [3] [µg/mL] | MIC [4] [µg/mL] | MIC [5] [µg/mL] | MIC [6] [µg/mL] | MIC [7] [µg/mL] | MIC [8] [µg/mL] | MIC [9] [µg/mL] | MIC [10] [µg/mL] | MIC [11] [µg/mL] | MIC [12] [µg/mL] | MIC [13] [µg/mL] | MIC [14] [µg/mL] | MIC [15] [µg/mL] | MIC [16] [µg/mL] | MIC [17] [µg/mL] | MIC [18] [µg/mL] | MIC [19] [µg/mL] | MIC [20] [µg/mL] |
| --- | --- | --- | --- | --- | --- | --- | --- | --- | --- | --- | --- | --- | --- | --- | --- | --- | --- | --- | --- | --- |
| CCCCCNC[C@H]1OC(O[C@H](C(C(=O)O)N(CCCCC)CCCNC(=O)C(NC(=O)C(NC(=O)NC(C(=O)O)C(C)C)C2CCNC(=N)N2)C(O)C(C)C)[C@H]2O[C@@H](n3ccc(=O)[nH]c3=O)[C@H](O)[C@@H]2O)[C@H](OC)[C@H]1O (stereo partly drawn) [Example 17, 16-[(R)-{(2S,3S,4R,5R)-5-[2,4-Dioxo-3,4-dihydro-1 (2H)-pyrimidinyl]-3,4-dihydroxytetrahydro-2-furanyl}({(3R,4S,5R)-4-hydroxy-3-methoxy-5-[(pentylamino)methyl]tetrahydro-2-furanyl}oxy)methyl]-9-(1-hydroxy-2-methylpropyl)-6-(2-iminohexahydro-4-pyrimidinyl)-2-isopropyl-4,7,10-trioxo-15-pentyl-3,5,8,11,15-pentaazaheptadecane-1,17-dioic Acid] | > 32 | > 32 | 32 (≈ 29.5 µM) | > 32 | 32 (≈ 29.5 µM) | > 32 | > 32 | > 32 | > 32 | > 32 | > 32 | > 32 | 32 (≈ 29.5 µM) | > 32 | > 32 | > 32 | > 32 | > 32 | > 32 | > 32 |
| CCCCCNC[C@H]1OC(O[C@H](C(NCCCNC(=O)C(NC(=O)C(NC(=O)NC(C(=O)O)C(C)C)C2CCNC(=N)N2)C(O)C(C)C)C(=O)O)[C@H]2O[C@@H](n3ccc(=O)[nH]c3=O)[C@H](O)[C@@H]2O)[C@H](OC)[C@H]1O (stereo partly drawn) [Example 18, 16-[(R)-{(2S,3S,4R,5R)-5-[2,4-Dioxo-3,4-dihydro-1 (2H)-pyrimidinyl]-3,4-dihydroxytetrahydro-2-furanyl}({(3R,4S,5R)-4-hydroxy-3-methoxy-5-[(pentylamino)methyl]tetrahydro-2-furanyl}oxy)methyl]-9-(1-hydroxy-2-methylpropyl)-6-(2-iminohexahydro-4-pyrimidinyl)-2-isopropyl-4,7,10-trioxo-3,5,8,11,15-pentaazaheptadecane-1,17-dioic Acid] | > 32 | > 32 | > 32 | > 32 | > 32 | > 32 | > 32 | > 32 | > 32 | > 32 | > 32 | > 32 | > 32 | > 32 | > 32 | > 32 | > 32 | > 32 | > 32 | > 32 |
| CO[C@H]1C(O[C@H](C(NCCCNC(=O)C(NC(=O)C(NC(=O)NC(C(=O)O)C(C)C)C2CCNC(=N)N2)C(O)C(C)C)C(=O)O)[C@H]2O[C@@H](n3ccc(=O)[nH]c3=O)[C@H](O)[C@@H]2O)O[C@H](CNCc2ccc(-c3ccccc3)cc2)[C@@H]1O (stereo partly drawn) [Example 19A, 16-((R)-[((3R,4S,5R)-5-{[([1,1′-Biphenyl]-4-ylmethyl)amino]methyl}-4-hydroxy-3-methoxytetrahydro-2-furanyl)oxy]{(2S,3S,4R,5R)-5-[2,4-dioxo-3,4-dihydro-1 (2H)-pyrimidinyl]-3,4-dihydroxytetrahydro-2-furanyl}methyl)-9-(1-hydroxy-2-methylpropyl)-6-(2-iminohexahydro-4-pyrimidinyl)-2-isopropyl-4,7,10-trioxo-3,5,8,11,15-pentaazaheptadecane-1,17-dioic Acid] | > 32 | > 32 | > 32 | > 32 | > 32 | > 32 | > 32 | > 32 | > 32 | > 32 | > 32 | > 32 | 16 (≈ 14.4 µM) | > 32 | > 32 | > 32 | > 32 | > 32 | > 32 | > 32 |
| CO[C@H]1C(O[C@H](C(C(=O)O)N(CCCNC(=O)C(NC(=O)C(NC(=O)NC(C(=O)O)C(C)C)C2CCNC(=N)N2)C(O)C(C)C)Cc2ccc(-c3ccccc3)cc2)[C@H]2O[C@@H](n3ccc(=O)[nH]c3=O)[C@H](O)[C@@H]2O)O[C@H](CNCc2ccc(-c3ccccc3)cc2)[C@@H]1O (stereo partly drawn) [Example 19B, 15-([1,1′-Biphenyl]-4-ylmethyl)-16-((R)-[((3R,4S,5R)-5-{[([1,1′-biphenyl]-4-ylmethyl)amino]methyl}-4-hydroxy-3-methoxytetrahydro-2-furanyl)oxy]{(2S,3S,4R,5R)-5-[2,4-dioxo-3,4-dihydro-1 (2H)-pyrimidinyl]-3,4-dihydroxytetrahydro-2-furanyl}methyl)-9-(1-hydroxy-2-methylpropyl)-6-(2-iminohexahydro-4-pyrimidinyl)-2-isopropyl-4,7,10-trioxo-3,5,8,11,15-pentaazaheptadecane-1,17-dioic Acid] | > 32 | > 32 | > 32 | > 32 | > 32 | > 32 | > 32 | > 32 | > 32 | > 32 | > 32 | > 32 | > 32 | > 32 | > 32 | > 32 | > 32 | > 32 | > 32 | > 32 |
| CO[C@H]1C(O[C@H](C(NCCCNC(=O)C(NC(=O)C(NC(=O)NC(C(=O)O)C(C)C)C2CCNC(=N)N2)C(O)C(C)C)C(=O)O)[C@H]2O[C@@H](n3ccc(=O)[nH]c3=O)[C@H](O)[C@@H]2O)O[C@H](CNCc2ccccc2)[C@@H]1O (stereo partly drawn) [Example 20A, 16-((R)-({(3R,4S,5R)-5-[(Benzylamino)methyl]-4-hydroxy-3-methoxytetrahydro-2-furanyl}oxy){(2S,3S,4R,5R)-5-[2,4-dioxo-3,4-dihydro-1 (2H)-pyrimidinyl]-3,4-dihydroxytetrahydro-2-furanyl}methyl)-9-(1-hydroxy-2-methylpropyl)-6-(2-iminohexahydro-4-pyrimidinyl)-2-isopropyl-4,7,10-trioxo-3,5,8,11,15-pentaazaheptadecane-1,17-dioic acid] | > 32 | > 32 | > 32 | > 32 | > 32 | > 32 | > 32 | > 32 | > 32 | > 32 | > 32 | > 32 | > 32 | > 32 | > 32 | > 32 | > 32 | > 32 | > 32 | > 32 |
